In brackets after ≈: the same amount, converted by molar mass. Where two headings read alike, the source gives them in different places.
What was measured:
S. epidermidis = assay: MIC testing by broth dilution, S. epidermidis plank; type: cell-based, Staphylococcus epidermidis
In short: (§1)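 Values are broth-dilution MICs, defined as the well showing no growth on visual reading after 24 h; the tested range was 32 to 0.06 μg/ml, in organism-specific media (LB, Trypticase Soy, Brain Heart Infusion). The C. difficile entries come instead from anaerobic Kirby-Bauer disk zones, normalised to NTZ.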

S. epidermidis 9142 = assay: Biofilm dispersal assay; type: cell-based, Staphylococcus epidermidis; conditions: drug added to 4 h biofilm
Solubility in water = type: physicochemical; conditions: water
[1] = tested on: S. haemolyticus strain 33208; assay: Biofilm determination, crystal violet, S. haemolyticus; type: cell-based; conditions: Staphylococcus haemolyticus; S. haemolyticus strain 33208, crystal violet; read-out: IC50 biofilm production
Procedure: Staphylococcal strains were cultured overnight in TSB at 37° C. with shaking, diluted in fresh medium to an OD600 of 0.01 and 200 W was dispensed into sterile flat bottom polystyrene 96 well microtiter plates (Costar 3596, Corning Inc.). […] Each compound and dilution was tested in triplicate. The plates were incubated overnight at 37° C. in a humidified incubator, without shaking and both growth and biofilm accumulation were determined at 16 h.
Following recording of turbidities, the culture medium was aspirated and the wells were washed three times with distilled water, blotted on paper towels, and fixed with 75% ethanol for 10 minutes.
To visualize biofilm material, 0.5% crystal violet was added to each well and after 5 minutes was removed and the wells washed three times with distilled water. Plates were read using a microplate reader at a wavelength of 570 nm. The dye was then extracted by adding 200 W of 95% ethanol, and the absorbance was read again at 570 nm. All assays were performed in triplicate and the mean and standard deviation determined. Generally, the ethanol-solubilized crystal violet was more reliable and these determinations are reported throughout.

S. epidermidis biofilm = S. epidermidis biofilm assay (activity tables); type: cell-based, Staphylococcus epidermidis
In short: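 Overnight TSB cultures diluted to OD600 0.01 and grown static with compound (triplicate) at 37° C for 16 h; turbidity recorded for growth. Biofilm: washed wells ethanol-fixed, stained with 0.5% crystal violet, A570 read before and after 95% ethanol extraction; mean ± SD.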

C. difficile [2] = assay: MIC by agar dilution, C. difficile; type: cell-based, Clostridium difficile
Procedure: A standard broth dilution protocol was used in 96 well microplates containing a standard dilution of the microorganism to be tested in 100 microliters of the appropriate medium. Appropriate medium: E. coli, LB medium; Staphylococcus strains, Trypticase Soy; and for H. pylori and C. jejuni, Brain Heart Infusion. The compounds to be tested were set at 32 μg/ml in 200 microliters in well one and then serially diluted to provide a range from 32 to 0.06. The wells were scored visually at 24 h. The well where there was no growth was recorded as the MIC. […]
Representative compounds of the invention were tested in a series of assays against a series of organisms as described above. […] The organisms tested include, C. difficile, H. pylori, C. jejuni, MRSA, S. epidermidis, and E. coli. S. epidermidis and E. coli were tested in the plank and biofilm assay. A disk diffusion assay was also used for C. difficile. Direct PFOR enzyme assays were also performed. All analogues and derivatives were not tested on every organism in every type of assay (the “-” in each table means that it was not tested).

[3] = tested on: EAEC JM221 (AAF/I fimbriae); assay: Hemagglutination of sheep erythrocytes, EAEC JM221; type: cell-based, Escherichia coli; conditions: EAEC JM221 grown in MinA-G with 20 μg/ml NTZ; also: key: +++ = strong hemagglutination reaction; + weak; − no hemagglutination
Procedure: HA assays were performed in 96-well microplates as described in (1). Bacteria grown over night without shaking ([…]) were suspended in PBS and diluted to OD660 of […] was mixed with an equal volume of 3% (vol/vol) sheep erythrocyte suspension containing 1% mannose, except when type I fimbriae producing strains were assayed. In the latter, bacteria were grown statically in LB medium (with and without NTZ) for 48 h and HA was determined with guinea pig erythrocytes. HA reactions were incubated at 4° C. for […] HA was determined visually against controls receiving no NTZ. All assays were prepared in triplicate and repeated twice.

C. difficile [4] = assay: Disk diffusion (Kirby Bower), C. difficile; type: cell-based, Clostridium difficile; conditions: for Disk Diff (%) C. difficile: Nitazoxanide = 100
In short: as §1

EAEC = assay: Motility in soft agar; type: cell-based, Escherichia coli; conditions: concentrations that inhibited biofilm formation
Procedure: EAEC strains were grown overnight in MinA-G medium at 37° C. with shaking and used to inoculate fresh MinA-G medium containing a range of NTZ concentrations (0, 5, 10, 15, 20, and 25 μg/ml) to a starting OD600 of 0.1. Growth was recorded as the absorbance at 600 nm at 30-minute intervals over a period of eight hours. […] Motility was assessed in LB soft agar (0.3% agar) containing 0 to 25 μg/ml of NTZ. The diameter of outward spreading was measured daily and inhibition computed as percent of control.

[5] = tested on: EAEC strains 042 and 17-2; conditions: previous studies (38), cited from earlier work
[6] = 2-amino-3,5-dinitrothiophene analogues table

SMILES: CC(=O)Oc1ccccc1C(=O)Nc1ncc([N+](=O)[O-])s1 [Nitazoxanide, 2-(acetyloxy)-N-(5-nitro-2-thiazolyl)benzamide, reference compound]
- MIC (S. epidermidis; Staphylococcus epidermidis, broth dilution, Trypticase Soy, 24 h, read-out: MIC (μM) S. epidermidis Plank): 52.1 µM (≈ 16 µg/mL)
- MIC (S. epidermidis; planktonic, 2-amino-3,5-dinitrothiophene analogues table, read-out: MIC S. epidermidis Plank): 52.1 µM (≈ 16 µg/mL)
- MIC (S. epidermidis; planktonic, Thiophene analogues table, read-out: MIC S. epidermidis Plank): 52.1 µM (≈ 16 µg/mL)
- Dispersal of preformed biofilm (S. epidermidis 9142): not dispersive
- solubility (Solubility in water): < 32 µg/mL
- IC50 [1]: 2.5 µg/mL (≈ 8.14 µM)
- MIC (μM) S. epidermidis Biofilm (S. epidermidis biofilm): 32.5 µM (≈ 9.99 µg/mL)
- MIC S. epidermidis Biofilm (S. epidermidis biofilm; [6]): 32.5 µM (≈ 9.99 µg/mL)
- MIC S. epidermidis Biofilm (S. epidermidis biofilm; Furan analogues table): 32.5 µM (≈ 9.99 µg/mL)
- MIC S. epidermidis Biofilm (S. epidermidis biofilm; Thiophene analogues table): 32.5 µM (≈ 9.99 µg/mL)
- MIC (C. difficile [2]; 2-amino-3,5-dinitrothiophene analogues table, read-out: MIC C. difficile): 52.1 µM (≈ 16 µg/mL)
- MIC (C. difficile [2]; Clostridioides difficile, Furan analogues table, read-out: MIC C. difficile): 52.1 µM (≈ 16 µg/mL)
- MIC (C. difficile [2]; Clostridioides difficile, agar dilution, anaerobic, Wilkins Chalgrin agar, read-out: MIC (μM) C. difficile): 52.1 µM (≈ 16 µg/mL)
- MIC (C. difficile [2]; Thiophene analogues table, read-out: MIC C. difficile): 52.1 µM (≈ 16 µg/mL)
- HA (sheep erythrocytes), bacterial OD660 0.5 [3]: −
- HA (sheep erythrocytes), bacterial OD660 1.0 [3]: −
- Disk Diff (%) C. difficile (C. difficile [4]; [6]): 100%
- Disk Diff (%) C. difficile (C. difficile [4]; Furan analogues table): 100%
- Disk Diff (%) C. difficile (C. difficile [4]; Thiophene analogues table): 100%
- Disk Diffusion (%) C. difficile (C. difficile [4]; zone of inhibited growth as relative ratio to the zone for NTZ): 100%
- Effect on swarming motility in soft agar (EAEC): no effect
- Concentrations inhibitory for growth on MinA base medium ([5]; E. coli papillation assay): higher than 15 μg/ml
- MIC in LB medium, previous studies [5]: > 64 µg/mL
